# Laboratory results published in PubChem BioAssay AID2060511 (Molecular Pharmacology Branch, DTP, NCI, 2025).
# Tested on: 422866-222-R5-J1-PDC spheroids with HUVEC/MSC, viability
# Assay: Anticancer human tumor 422866-222-R5-J1-PDC patient-derived pancreatic adenocarcinoma cell line growth inhibition [GQUAD]
# Conditions: for IC50: curve of first compound; for viability, T/C: stronger effect = lower value
# Description: DNA G-quadruplex Stabilizer Agents in Combinations in Complex Spheroids
# A high-throughput screen of multi-cell type tumor spheroids was designed to identify active combinations of DNA G-quadruplex stabilizer agents and targeted small molecules. Complex spheroids include a stromal component modeled by human endothelial cells (HUVEC) and fibroblasts modeled by human mesenchymal stem cells (MSCs). The concentration ranges selected for each drug and investigational agent were based upon clinically achievable concentrations if the clinical Cmax of the agent was known.
# Compounds. The drugs and investigational agents: pidnarulex (CX-5461; NSC782164), APTO-253 (NSC789042), BRACO-19 (NSC847499), peposertib (NSC802822), ceralasertib (NSC780249), elimusertib (NSC800525), camonsertib (NSC841442), AZD-1390 (NSC803789), olaparib (NSC753686), talazoparib (NSC767125), ART-558 (NSC835418), sotorasib (NSC818433), MRTX-1133 (NSC836407), SN-38 (NSC673596), topotecan (NSC609699), etoposide (NSC141540), doxorubicin (NSC123127), gemcitabine (NSC613327), 5-fluorouracil (NSC19893), paclitaxel (NSC125973), vemurafenib (NSC761431), panobinostat (NSC761190), R-306465 (JNJ-16241199; NSC773264), adavosertib (NSC754352), TP-3654 (NSC805149), carboplatin (NSC241240), KSQ-4279 (NSC840948), and staurosporine (NSC755774) were obtained from the National Cancer Institute (NCI) Developmental Therapeutics Program Chemical Repository (34). The FDA-approved anticancer drug set is available from the NCI Developmental Therapeutics Program. […] The stock solutions were prepared in dimethyl sulfoxide (DMSO, Sigma-Aldrich, St. Louis, MO, cat. D2650) at 800-fold the tested concentration and stored at -70 degrees C prior to their use. All drugs and investigational agents were tested over a range starting from a high concentration at or near the clinical Cmax and decreasing in half-log increments. If the clinical Cmax for an agent had not been determined, the highest concentration tested was 10 microM.
# 2.3 Cell Culture. All cells were maintained in an incubator at 37 degrees C and 5% CO2 with 95% humidity. The PDC lines were cultured according to standard operating procedures established by the NCI PDMR. All PDCs were thawed and cultured in Matrigel-coated flasks prepared with a working solution of 1X Ham's F-12 nutrient mix, without supplementation (Invitrogen, cat. 11765054), 100 U/mL penicillin-streptomycin (Invitrogen, cat. 15140122), and 2.5% Matrigel (Corning Inc., cat. 354248) for the first three passages. The 857933-349-R-J2-PDC line was cultured in 6C/Colon 1B media, which includes advanced DMEM/F-12 (Thermo Fisher Scientific, cat. 12634028), 10 mM HEPES (Thermo Fisher Scientific, cat. 15630080), 1X GlutaMAX supplement (Thermo Fisher Scientific, cat. 35050061), 0.1 mg/mL primocin (InvivoGen, cat. ant-pm-2), 10% defined fetal bovine serum, heat inactivated (HyClone Laboratories Inc., cat. SH30070.03HI), 50% L-WRN conditioned media (ATCC, cat. CRL-3276), 1.25 mM N-Acetyl-L-cysteine (Sigma-Aldrich, cat. A9165), 10 mM nicotinamide (Sigma-Aldrich, cat. N0636), 1X B-27 supplement (Thermo Fisher Scientific, cat. 17504044), 1X N-2 supplement (Thermo Fisher Scientific, cat. 17502048), 10 microM Y-27632 dihydrochloride (Tocris Bioscience, cat. 1254), and 50 ng/mL human EGF recombinant protein (Thermo Fisher Scientific, cat. PHG0311). The 485176-168-R4-J1-PDC line was cultured in Panc media, which includes all 6C/Colon 1B media components plus 100 ng/mL human FGF-10 (Thermo Fisher Scientific, cat. 100-26), 500 nM SB-431542 (Selleckchem, cat. S1067), and gastrin (Tocris, cat. 3006).
# […]
# 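Also: spheroids exposed to compounds for seven days before reading.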
# 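For viability, T/C in this document: percent viability relative to DMSO vehicle control taken as 100%.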
smiles,measurement,setting,value
O=C(c1cc(Cc2n[nH]c(=O)c3ccccc23)ccc1F)N1CCN(C(=O)C2CC2)CC1 + Cc1[nH]c2ccc(F)cc2c1-c1nc2c3cccnc3c3ncccc3c2[nH]1,IC50,second compound 0.0316 µM,> 10 µM
same,IC50,second compound 0.1 µM,> 10 µM
same,IC50,second compound 0.316 µM,> 10 µM
same,IC50,second compound 1 µM,> 10 µM
same,IC50,second compound 3.16 µM,> 10 µM
same,IC50,second compound 10 µM,> 10 µM
same,"viability, T/C","second compound 0.0316 µM, first compound 0.0316 µM",99%
same,"viability, T/C","second compound 0.0316 µM, first compound 0.1 µM",87.9%
same,"viability, T/C","second compound 0.0316 µM, first compound 0.316 µM",91%
same,"viability, T/C","second compound 0.0316 µM, first compound 1 µM",77%
same,"viability, T/C","second compound 0.0316 µM, first compound 3.16 µM",83.1%
same,"viability, T/C","second compound 0.0316 µM, first compound 10 µM",65.6%
same,"viability, T/C","second compound 0.1 µM, first compound 0.0316 µM",102%
same,"viability, T/C","second compound 0.1 µM, first compound 0.1 µM",85.1%
same,"viability, T/C","second compound 0.1 µM, first compound 0.316 µM",86%
same,"viability, T/C","second compound 0.1 µM, first compound 1 µM",89.2%
same,"viability, T/C","second compound 0.1 µM, first compound 3.16 µM",93%
same,"viability, T/C","second compound 0.1 µM, first compound 10 µM",81.4%
same,"viability, T/C","second compound 0.316 µM, first compound 0.0316 µM",104%
same,"viability, T/C","second compound 0.316 µM, first compound 0.1 µM",83.9%
same,"viability, T/C","second compound 0.316 µM, first compound 0.316 µM",90.6%
same,"viability, T/C","second compound 0.316 µM, first compound 1 µM",72.8%
same,"viability, T/C","second compound 0.316 µM, first compound 3.16 µM",87.4%
same,"viability, T/C","second compound 0.316 µM, first compound 10 µM",79.7%
same,"viability, T/C","second compound 1 µM, first compound 0.0316 µM",89.9%
same,"viability, T/C","second compound 1 µM, first compound 0.1 µM",100%
same,"viability, T/C","second compound 1 µM, first compound 0.316 µM",89.2%
same,"viability, T/C","second compound 1 µM, first compound 1 µM",88.7%
same,"viability, T/C","second compound 1 µM, first compound 3.16 µM",94.7%
same,"viability, T/C","second compound 1 µM, first compound 10 µM",83.6%
same,"viability, T/C","second compound 3.16 µM, first compound 0.0316 µM",79.4%
same,"viability, T/C","second compound 3.16 µM, first compound 0.1 µM",83.5%
same,"viability, T/C","second compound 3.16 µM, first compound 0.316 µM",75.4%
same,"viability, T/C","second compound 3.16 µM, first compound 1 µM",100%
same,"viability, T/C","second compound 3.16 µM, first compound 3.16 µM",81.7%
same,"viability, T/C","second compound 3.16 µM, first compound 10 µM",79.6%
same,"viability, T/C","second compound 10 µM, first compound 0.0316 µM",66.6%
same,"viability, T/C","second compound 10 µM, first compound 0.1 µM",70.8%
same,"viability, T/C","second compound 10 µM, first compound 0.316 µM",81.2%
same,"viability, T/C","second compound 10 µM, first compound 1 µM",64.2%
same,"viability, T/C","second compound 10 µM, first compound 3.16 µM",85.9%
same,"viability, T/C","second compound 10 µM, first compound 10 µM",77.7%
